From patent EP0908457B1, “3-(1,2-benzisothiazol- and isoxazol-5-Y1)-2,4(1H,3H)-pyrimidinedione or thione and 3-(1,2-benzisothiazol- and isoxazol-5-y1)-4(3H)-pyrimidinone or thione herbicidal agents” (BASF AKTIENGESELLSCHAFT, priority 1997, dated 1999)

Legend:
[1] = test system: Monochoria vaginalis, Presl.; experiment: Preemergence weed control under flooded paddy conditions, MOOVA (Monochoria); assay type: in vivo; conditions: preemergence, flooded paddy; for herbicidal effect rating, MOOVA: rated 3-4 weeks after treatment; for MOOVA herbicidal rating: rated three to four weeks after treatment
[2] = test system: Oryza sativa, (L.) Tebonnet; experiment: Rice tolerance to post-transplant applications under flooded paddy conditions (Example 187), ORYSAT (Rice, Tebonnet); conditions: for herbicidal effect rating ORYSAT: rated 3-4 weeks after treatment; for ORYSAT herbicidal rating (rice tolerance): rated three to four weeks after treatment; as to herbicidal effect rating ORYSAT: meaning of each grade not given here
[3] = test system: Cyperus serotinus, Rottb.; experiment: Preemergence weed control under flooded paddy conditions, CYPSE (Flatsedge); assay type: in vivo; conditions: preemergence; for herbicidal effect rating, CYPSE: rated 3-4 weeks after treatment; for CYPSE herbicidal rating: rated three to four weeks after treatment
Sagittaria pygmaea, L. = experiment: Preemergence weed control under flooded paddy conditions, SAGPY (Arrowhead (Pygmaea)); assay type: in vivo; conditions: preemergence, flooded paddy; for herbicidal effect rating, SAGPY: rated 3-4 weeks after treatment; for SAGPY herbicidal rating: rated three to four weeks after treatment
[4] = test system: Echinochloa oryzoides (Ard.) Fritsch.; experiment: Preemergence weed control under flooded paddy conditions, ECHORC (Watergrass (Calif.)); assay type: in vivo; conditions: preemergence, flooded paddy; for herbicidal effect rating, ECHORC: rated 3-4 weeks after treatment; for ECHORC herbicidal rating: rated three to four weeks after treatment
Cyperus iria = experiment: Preemergence weed control under flooded paddy conditions, CYPIR (Rice Flatsedge); assay type: in vivo; conditions: preemergence, flooded paddy; for herbicidal effect rating, CYPIR: rated 3-4 weeks after treatment; for CYPIR herbicidal rating: rated three to four weeks after treatment

With C=CC(CCCC)OC(=O)COc1ccc(C)cc1-c1nsc2ccc(-n3c(=O)cc(C(F)(F)F)n(C)c3=O)cc12 (stereo not shown) [Example 520, Acetic acid, {{2-{5-[3,6-dihydro-3-methyl-2,6-dioxo-4-(trifluoromethyl)-1(2H)-pyrimidinyl]-1,2-benzisothiazol-3-yl}-p-tolyl}oxy}-, 1-vinylpentyl ester] the “herbicidal effect rating, MOOVA” value ([1]; Rate 0.0320 kg/ha) was 9.0, the “herbicidal effect rating, MOOVA” value ([1]; Rate 0.0620 kg/ha) was 9.0 and the “herbicidal effect rating, MOOVA” value ([1]; Rate 0.1250 kg/ha) was 9.0. The “herbicidal effect rating, MOOVA” value ([1]; Rate 0.2500 kg/ha) was 9.0, the “herbicidal effect rating ORYSAT” value ([2]; Rate 0.0320 kg/ha) was 2.0 and the “herbicidal effect rating ORYSAT” value ([2]; Rate 0.0620 kg/ha) was 3.5. For the same compound, the “herbicidal effect rating ORYSAT” value ([2]; Rate 0.1250 kg/ha) was 4.5, the “herbicidal effect rating ORYSAT” value ([2]; Rate 0.2500 kg/ha) was 3.0 and the “herbicidal effect rating, CYPSE” value ([3]; Rate 0.0320 kg/ha) was 0.0. The “herbicidal effect rating, CYPSE” value ([3]; Rate 0.0620 kg/ha) was 0.0, the “herbicidal effect rating, CYPSE” value ([3]; Rate 0.1250 kg/ha) was 0.0 and the “herbicidal effect rating, CYPSE” value ([3]; Rate 0.2500 kg/ha) was 0.0. For the same compound, the “herbicidal effect rating, SAGPY” value (Sagittaria pygmaea, L.; Rate 0.0320 kg/ha) was 0.0, the “herbicidal effect rating, SAGPY” value (Sagittaria pygmaea, L.; Rate 0.0620 kg/ha) was 0.0 and the “herbicidal effect rating, SAGPY” value (Sagittaria pygmaea, L.; Rate 0.1250 kg/ha) was 0.0. The “herbicidal effect rating, SAGPY” value (Sagittaria pygmaea, L.; Rate 0.2500 kg/ha) was 0.0, the “herbicidal effect rating, ECHORC” value ([4]; Rate 0.0320 kg/ha) was 6.5 and the “herbicidal effect rating, ECHORC” value ([4]; Rate 0.0620 kg/ha) was 8.0. The “herbicidal effect rating, ECHORC” value ([4]; Rate 0.1250 kg/ha) was 8.5, the “herbicidal effect rating, ECHORC” value ([4]; Rate 0.2500 kg/ha) was 9.0 and the “herbicidal effect rating, CYPIR” value (Cyperus iria; Rate 0.0320 kg/ha) was 0.0. The “herbicidal effect rating, CYPIR” value (Cyperus iria; Rate 0.0620 kg/ha) was 0.0, the “herbicidal effect rating, CYPIR” value (Cyperus iria; Rate 0.1250 kg/ha) was 2.0 and the “herbicidal effect rating, CYPIR” value (Cyperus iria; Rate 0.2500 kg/ha) was 4.0.

Compound Cn1c(C(F)(F)F)cc(=O)n(-c2ccc3snc(C(=O)NS(=O)(=O)CCc4ccccc4)c3c2)c1=O [Example 485, 1,2-Benzisothiazole-3-carboxamide, 5-[3,6-dihydro-3-methyl-2,6-dioxo-4-(trifluoromethyl)-1(2H)-pyrimidinyl]-N-(phenethylsulfonyl)-] has an MOOVA herbicidal rating ([1]; 0.0320 kg/ha) of 4.0, an MOOVA herbicidal rating ([1]; 0.0620 kg/ha) of 6.0 and an MOOVA herbicidal rating ([1]; 0.1250 kg/ha) of 7.0. For the same compound, the MOOVA herbicidal rating ([1]; 0.2500 kg/ha) was 8.0, the “ORYSAT herbicidal rating (rice tolerance)” value (“ORYSAT herbicidal rating” for short) ([2]; 0.0320 kg/ha) was 0.0 and the “ORYSAT herbicidal rating” value ([2]; 0.0620 kg/ha) was 2.0. The “ORYSAT herbicidal rating” value ([2]; 0.1250 kg/ha) was 4.0, the “ORYSAT herbicidal rating” value ([2]; 0.2500 kg/ha) was 5.0 and the CYPSE herbicidal rating ([3]; 0.0320 kg/ha) was 0.0. The CYPSE herbicidal rating ([3]; 0.0620 kg/ha) was 0.0, the SAGPY herbicidal rating (Sagittaria pygmaea, L.; 0.0320 kg/ha) was 0.0 and the SAGPY herbicidal rating (Sagittaria pygmaea, L.; 0.0620 kg/ha) was 0.0. For the same compound, the SAGPY herbicidal rating (Sagittaria pygmaea, L.; 0.1250 kg/ha) was 0.0, the SAGPY herbicidal rating (Sagittaria pygmaea, L.; 0.2500 kg/ha) was 3.0 and the ECHORC herbicidal rating ([4]; 0.0320 kg/ha) was 4.0. For the same compound, the ECHORC herbicidal rating ([4]; 0.0620 kg/ha) was 6.0, the ECHORC herbicidal rating ([4]; 0.1250 kg/ha) was 6.0 and the ECHORC herbicidal rating ([4]; 0.2500 kg/ha) was 9.0. For the same compound, the CYPIR herbicidal rating (Cyperus iria; 0.0320 kg/ha) was 2.0, the CYPIR herbicidal rating (Cyperus iria; 0.0620 kg/ha) was 4.0 and the CYPIR herbicidal rating (Cyperus iria; 0.1250 kg/ha) was 5.0. For the same compound, the CYPIR herbicidal rating (Cyperus iria; 0.2500 kg/ha) was 6.0.
